Data on 2 molecules can be found in patent US20250057958A1, “CYTOTOXICITY TARGETING CHIMERAS FOR CCR2-EXPRESSING CELLS” (GLAXOSMITHKLINE INTELLECTUAL PROPERTY DEVELOPMENT LIMITED, priority 2022, published 2025).

The test system of series [1] is CCR2 expressing cells (CD11b+Ly6c+Hi monocytes). Kind of series: In vivo depletion assay (flow cytometry of peripheral blood). More on the design: species or system human CCR2 (hCCR2) knock-in mice. The conditions noted are these: IV bolus 0.1 mpk compound + 10 mpk anti-cotinine antibody (mouse IgG2a Fc), 48 hours. As to the method:
(§1) Human CCR2 (hCCR2) knock-in mice (C57 background) were dosed intravenously with a PBS solution containing a compound of Formula (I) to measure depletion of CCR2 expressing cells in peripheral blood. Peripheral blood from IV dosed mice was also analyzed to determine PK properties of the compounds of Formula (I).
Formulations preparation: On the day of experiment, the stock solution of the compound of Formula (I) was removed from storage at −20° C. and thawed at room temperature. Anti-cotinine antibody having a heavy chain sequence of SEQ ID NO: 13 and a light chain sequence of SEQ ID NO: 14 (rabbit variable region sequence with mouse IgG2a Fc domain), if required was removed from storage at −80° C. and thawed at room temperature. Antibody vials were immediately transferred into wet ice after thawing. Compounds of Formula (I) were further diluted in DMSO as per experimental requirements.
Formulation composition: The formulation composition was Saline: DMSO: PBS. Saline was added based on the quantity required and then stock solution of the compound of Formula (1) prepared in DMSO, followed by addition of antibody in PBS. Formulations were incubated at room temperature for 30 minutes before administration to the mouse. DMSO was used at 1 to 2% (v/v) in the final formulation.
(§2) Administration to Animal: Solution formulation of antibody and compound of Formula (I) was injected (bolus injection) to the restrained mouse in the right/left lateral tail vein. Animals were dosed with 0.1 milligram per kilogram (mpk) of the compound of Formula (I) and 10 mpk of the anti-cotinine antibody.
(§3) Terminal bleeding at end of experiment (48 hr): Approximately 250 μL of blood in K2EDTA tube and approximately 250 μL of blood in SST (serum separation tube) was collected from each mouse through retro-orbital bleeding under deep isoflurane anesthesia. After bleeding, each mouse was sacrificed by cervical dislocation. The blood distribution at termination was determined as follows: • For PK: 50 μL of K2EDTA blood was transferred to another tube for PK • Flow cytometry: Remaining blood (˜200 μL) was used for flow cytometry analysis. • For serum collection: serum separator tubes (BD) were centrifuged at 4° C., 5000 rpm for 15 minutes. Approximately 100 μL serum was separated and stored at −80° C. for further usage. • Blood drug concentration: Samples collected at the various timepoints (0.25 hr, 2 hr, 24 and 48 hr) were analyzed to determine blood drug concentration.
Flow cytometry analysis: CCR2 depletion in peripheral blood was determined by flow cytometry. Briefly, peripheral blood was collected from all animals at the end of study termination and processed. […]
Percent depletion of CD11b+Ly6c+Hi cells and CCR2 expression for the different treatment groups was determined. […]
On the technique in general: A flow cytometer gives signals particle by particle.

For series [2], the target named is T1, CHOK1 cells engineered to overexpress human CCR2 (Homo sapiens, UniProt P41597).
T1 construct: expressed in transfected cells; host or cells: CHOK1 cells
In words: Antibody dependent cellular cytotoxicity (ADCC) reporter assay. In kind it is cell-based. The note with it: with anti-cotinine antibody (SEQ ID NO: 11/12, human IgG1 Fc S239D/I332E); Jurkat FcγRIIIa NFAT-luciferase reporter cells; 12-18 hours; average if more than one run; read-out: ADCC Reporter Assay pEC50 (converted). As to the method: An antibody dependent cellular cytoxocity reporter assay was conducted using the following four assay components: (i) ARM compound of Formula (I) targeting CCR2 (concentrations ranging from 1 pM to 10 μM) (ii) anti-cotinine antibody having a heavy chain sequence of SEQ ID NO: 11 and a light chain sequence of SEQ ID NO: 12 (rabbit variable region with human IgG1 Fc domain containing a DE mutation (S239D/I332E)) (concentrations ranging from 0.01 μg/mL to 200 μg/mL); (iii) target cells: CHOK1 cells engineered to overexpress either human CCR2 (typically 1000-20,000 cells perwell) and (iv) reporter cells: Jurkat cells engineered to express FcγRIIIa with the reporter gene luciferase under the control of the NFAT promoter (typically 3000-75,000 cells per well). Reagents were combined in a final volume of 20 μL in a 384—well tissue culture treated plate. All four assay components were incubated together for about 12-18 hours. Thereafter, BioGlo Detection reagent (Promega) was added to the wells to lyse the cells and provide a substrate for the luciferase reporter protein. Luminescence signal was measured on a microplate reader and signal:background was calculated by dividing the signal of a test well by the signal obtained when no ARM compound of Formula (I) was added. EC50 calculations were done using Graphpad Prism Software, specifically a nonlinear regression curve fit (Y=Bottom+(Top−Bottom)/(1+10 ^((Log EC50−X)*HillSlope))).
ARMs compounds of Formula (I) of the invention were tested for ADCC activity in the above assay in or more experimental runs and the results are shown in Table 3 below. Potency of the compounds of Formula (I) of the invention is reported as a pEC50 value. The pEC50 value is the negative log of the EC50 value, wherein the EC50 value is the half maximal effective concentration measured in molar (M). For compounds tested in more than one experimental run, the pEC50 value is reported as an average.
(A reporter such as luciferase makes a cellular process visible.)

The nature of series [3]: Blood drug concentration analysis (PK) in the in vivo depletion assay. More on the design: species or system human CCR2 (hCCR2) knock-in mice. The note with it: human CCR2 (hCCR2) knock-in, C57 background, mouse, whole blood, LC-MS/MS, IV bolus 0.1 mpk compound + 10 mpk anti-cotinine antibody, 48 hours post-dose, read-out: Exposure of Compound of Formula (I) 48 hours post-dose. As to the method: as §1, §2
Collection of Blood for PK: Blood was collected at time points 0.25 hour, 2 hours, and […] following administration (50 μL/time point) through retro-orbital bleeding under mild isoflurane anesthesia.
as §3
Blood drug concentration analysis: Drug concentration in blood samples was determined by an LC-MS/MS-based bioanalytical method developed at Syngene. Samples were analyzed on Q-Trap, API-5500 LC-MS/MS system coupled with Exion UHPLC system from SCIEX, USA operated in multiple reaction monitoring mode employing electrospray ionization technique in positive polarity. Analyte and internal standard peaks were resolved on Synergi Polar, 75×2.0 mm, 4 μcolumn using mobile phase 10 mM Ammonium acetate in Milli-Q water as phase A and 0.1% Formic acid in acetonitrile as Phase B. Gradient elution was performed with initial composition 95% Phase A at 0.0 min, holding it for 0.2 minutes, ramping to 5% by 1.0 minute, keeping the same for next 0.5 minutes and coming back to 95% by 1.6 minutes. The total run time was 2 minutes.
Working dilutions for calibration curve and quality control standards were prepared by serially diluting 20 mg/mL stock solution with DMSO. Spiked concentrations for calibration curve in the whole blood ranged from 1 ng/mL to 1000 ng/mL. […]

In series [4] the target is human alpha1 nicotinic acetylcholine (nACh) receptor (Homo sapiens, UniProt P02708+Q07001). Kind of series: Nicotinic acetylcholine receptor antagonism assay (IONFlux automated patch clamp). Format: cell-based. From the text:
Cells expressing human alpha1 nicotinic acetylcholine (nACh) receptor (nAChR) were washed and dissociated using Trypsin containing buffer. Cells were then washed and seeded at a density of 3-5 million cells/mL and allowed to grow for 3 days. […] The receptor was then stimulated via addition of acetylcholine (ACh) and activation of the receptor was monitored via the IONFlux automated patch clamp system. IonFlux Data Analyzer software was utilized to perform leak subtraction and measure (min) peak current amplitude.
Data processing: (1) Current values recorded for vehicle only applications in individual traps/patterns were subtracted from corresponding current amplitude values for control, test article and control+test article. (2) Control response was calculated as % of the average response of the 3rd out of total 3 ACh (10 mM) applications alone. In rare situations, if the 3rd ACh response was obscured due to technical artifacts, the 2nd and/or 1st ACh (10 mM) application was considered as control. The peak current amplitude generated in the presence of each test article concentration was then used to calculate the % inhibition as compared to control response (10 mM ACh alone). These estimates were further corrected for vehicle response and run down corrected by normalizing with time matched control responses (10 mM ACh alone). The corrected percentages were then fit with a non-linear function in GraphPad Prism 6 (or later versions) to determine the IC50.
Exclusion criteria: (i) any n's with poor recording quality, (ii) control current amplitude <500 pA or (iii) significant outliers, as determined by the Grubbs' test.
ARMs compounds of Formula (I) of the invention were tested for antagonism of the nAChR in the above assay in […] experimental runs and the results are shown in Table 5 below. Antagonistic activity of the compounds of Formula (I) of the invention is reported as an IC50 value (half maximal inhibitory concentration) and the maximum percentage antagonism observed at the highest concentration of compound of Formula (I) tested, as indicated in Table 5. For compounds tested in more than one experimental run, the IC50 value is reported as an average.
(In general: Patch clamp records ionic current or voltage across a cell membrane.)

A value given as a limit tells only on which side of the number the result lay.

human alpha1 nicotinic acetylcholine (nACh) receptor, sequence (P02708 21-457): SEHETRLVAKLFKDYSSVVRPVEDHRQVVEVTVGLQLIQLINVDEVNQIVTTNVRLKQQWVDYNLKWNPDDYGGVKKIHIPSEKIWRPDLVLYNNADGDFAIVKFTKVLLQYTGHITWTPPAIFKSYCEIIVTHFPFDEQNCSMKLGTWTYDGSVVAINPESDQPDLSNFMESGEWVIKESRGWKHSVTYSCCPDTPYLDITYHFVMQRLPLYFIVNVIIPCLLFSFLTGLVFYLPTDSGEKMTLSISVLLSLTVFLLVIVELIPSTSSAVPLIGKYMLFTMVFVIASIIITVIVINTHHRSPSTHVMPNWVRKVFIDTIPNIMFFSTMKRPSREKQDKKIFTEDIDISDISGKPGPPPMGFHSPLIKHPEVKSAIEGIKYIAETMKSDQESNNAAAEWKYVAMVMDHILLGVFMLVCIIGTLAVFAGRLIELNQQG
human alpha1 nicotinic acetylcholine (nACh) receptor, sequence (P11230 24-501 partner): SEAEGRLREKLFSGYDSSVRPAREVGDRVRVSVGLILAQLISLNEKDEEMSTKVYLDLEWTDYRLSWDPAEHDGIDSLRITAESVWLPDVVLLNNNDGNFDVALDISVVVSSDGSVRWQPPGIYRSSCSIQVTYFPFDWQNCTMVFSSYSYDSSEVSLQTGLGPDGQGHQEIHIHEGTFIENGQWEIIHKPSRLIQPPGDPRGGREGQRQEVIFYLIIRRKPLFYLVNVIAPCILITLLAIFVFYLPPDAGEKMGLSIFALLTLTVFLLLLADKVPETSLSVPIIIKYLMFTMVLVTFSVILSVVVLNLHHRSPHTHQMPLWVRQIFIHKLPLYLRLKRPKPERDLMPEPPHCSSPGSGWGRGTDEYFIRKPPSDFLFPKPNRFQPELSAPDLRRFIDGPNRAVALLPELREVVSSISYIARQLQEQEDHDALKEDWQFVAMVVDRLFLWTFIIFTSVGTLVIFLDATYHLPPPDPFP
human alpha1 nicotinic acetylcholine (nACh) receptor, sequence (Q07001 22-517): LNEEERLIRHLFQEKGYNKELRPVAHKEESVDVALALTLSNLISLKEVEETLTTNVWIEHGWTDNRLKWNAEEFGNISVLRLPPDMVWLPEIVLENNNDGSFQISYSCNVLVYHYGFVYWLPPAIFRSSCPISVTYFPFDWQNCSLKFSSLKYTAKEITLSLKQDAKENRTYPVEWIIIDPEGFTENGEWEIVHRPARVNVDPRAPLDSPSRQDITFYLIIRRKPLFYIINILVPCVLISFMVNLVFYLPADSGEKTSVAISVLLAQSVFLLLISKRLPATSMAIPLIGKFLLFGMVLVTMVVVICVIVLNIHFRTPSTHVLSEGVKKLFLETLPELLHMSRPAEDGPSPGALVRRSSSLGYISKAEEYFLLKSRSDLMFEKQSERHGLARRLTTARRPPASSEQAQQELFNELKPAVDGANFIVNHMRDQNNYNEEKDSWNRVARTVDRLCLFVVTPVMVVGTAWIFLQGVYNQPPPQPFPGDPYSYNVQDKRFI

With `CC(=O)N[C@@H]1C[C@H](NC(C)(C)C)CC[C@@H]1N1CC[C@H](Nc2nc(CCCNC(=O)[C@H]3CC[C@H](NC(=O)CCCO[C@H]4CC[C@H](OCCNC(=O)[C@H]5CC(=O)N(C)[C@@H]5c5cccnc5)CC4)CC3)nc3ccc(C(F)(F)F)cc23)C1=O` [Example 1, (2S,3S)—N-(2-(((1R,4S)-4-(4-(((1S,4R)-4-((3-(4-(((S)-1-((1S,2R,4R)-2-Acetamido-4-(tert-butylamino)cyclohexyl)-2-oxopyrrolidin-3-yl)amino)-6-(trifluoromethyl)quinazolin-2-yl)propyl)carbamoyl)cyclohexyl)amino)-4-oxobutoxy)cyclohexyl)oxy)ethyl)-1-methyl-5-oxo-2-(pyridin-3-yl)pyrrolidine-3-carboxamide], the “% Depletion of CCR2 expressing cells” value in series [1] was determined as 89.18%. In addition, in series [2], the EC50 is 0.158 nM. In addition, in series [3], the concentration at 48 h came out at 42.9 ng/mL.
In general, IC50 refers to the concentration that gives 50% inhibition. As to `CC(=O)N[C@@H]1C[C@H](N(C)C(C)C)CC[C@@H]1N1CC[C@H](Nc2nc(CCCNC(=O)[C@H]3CC[C@H](NC(=O)CCCO[C@H]4CC[C@H](OCCNC(=O)[C@H]5CC(=O)N(C)[C@@H]5c5cccnc5)CC4)CC3)nc3ccc(C(F)(F)F)cc23)C1=O` [Example 6, (2S,3S)-N-(2-(((1R,4S)-4-(4-(((1S,4R)-4-((3-(4-(((S)-1-((1S,2R,4R)-2-Acetamido-4-(isopropyl(methyl)amino)cyclohexyl)-2-oxopyrrolidin-3-yl)amino)-6-(trifluoromethyl)quinazolin-2-yl)propyl)carbamoyl)cyclohexyl)amino)-4-oxobutoxy)cyclohexyl)oxy)ethyl)-1-methyl-5-oxo-2-(pyridin-3-yl)pyrrolidine-3-carboxamide], the EC50 in series [2] was 0.158 nM. The Emax at 33.3 µM in series [4] (maximum percentage antagonism at highest concentration tested, 33.3 μM, read-out: Maximum Response (%)) stood at 48%. Also, the IC50 in series [4] (nAChR antagonism, stimulated with ACh, average if more than one run) was over 33300 nM.
